Calls of active or inactive are those of the source. No cut-off for these calls is given here.
How the values were obtained:
[1] = system: Lactobacillus johnsonii; test: Non-competive inhibition of catalytic activity of His6-tagged Lactobacillus johnsonii N6.2 cinnamoyl esterase LJ0536 expressed in Escherichia coli BL21 (DE3) assessed as substrate Vmax by measuring hydrolysis of 4-nitrophenyl butyrate in 4-nitrophenol at 400 uM pre-incubated for 2 hrs (reference value: 4.094 umol/min/mg)
[2] = system: Lactobacillus johnsonii; test: Inhibition of catalytic activity of His6-tagged Lactobacillus johnsonii N6.2 cinnamoyl esterase LJ0536 expressed in Escherichia coli BL21 (DE3) assessed as reduction in hydrolysis of 4-nitrophenyl butyrate in 4-nitrophenol at 400 uM in presence of 2.5 to 20 mM enzyme pre-incubated for 2 hrs
[3] = system: Lactobacillus johnsonii; test: Inhibition of catalytic activity of His6-tagged Lactobacillus johnsonii N6.2 cinnamoyl esterase LJ0536 expressed in Escherichia coli BL21 (DE3) assessed as reduction in hydrolysis of 4-nitrophenyl butyrate in 4-nitrophenol pre-incubated for 2 hrs

With `CC(C(=O)O)c1ccc(-c2ccccc2)c(F)c1` (stereo not drawn) the Vmax [1] was 3.7 µmol/min/mg, the inhibition [2] was “Active” and the inhibition [3] was “Dose-dependent effect”.
